Experimental data as given in paper PMC8301768, “Cloning and Characterization of Aedes aegypti Trypsin Modulating Oostatic Factor (TMOF) Gut Receptor” (Biomolecules, 2021).

Tests used:
AeaABC-TMOF receptor [1] = experiment: Transport of AeaTMOF-FITC into E. coli cells expressing AeaABC-TMOF receptor in the presence of inhibitors; assay type: cell-based, Aedes aegypti; conditions: NaAzide 100 μM, NaArsenate 20 mM, AeaTMOF-FITC 0.4 μM, 2 h, 37 °C; for effect on transport of AeaTMOF-FITC into E. coli cells (in words): Valinomycin 7 μM, DNP 27 μM; for inhibition of transport of AeaTMOF-FITC into E. coli cells: 5 × 10^5 cells, M9 medium, versus control cells, mean of 3
Experimental: To find out whether the transport into E. coli cells expressing the TMOF receptor is proton driven or depends on ATP hydrolysis, E. coli cells (5 × 10^5 cell) expressing the TMOF receptor were incubated in M9 medium (100 μL) with valinomysin (7 μM), DNP (27 μM), NaAzide (100 μM) and NaArsenate (20 mM) in the presence of AeaTMOF-FITC (0.4 μM) for 2 h at 37 °C. Control was run without the inhibitors. After incubation, the cells were washed 3× by centrifugation and the fluorescence was read after subtraction the initial background fluorescence of the medium and inhibitors without the AeaTMOF-FITC. The incubations were repeated 3 independent times and the results are expressed as means of 3 determinations ±SEM.

AeaABC-TMOF receptor [2] = experiment: Fluorescence microscopy of TMOF-FITC import into E. coli cells expressing AeaABC-TMOF receptor; assay type: cell-based, Aedes aegypti; conditions: for fluorescence of cells / import (in words): overnight incubation, 10^8 cells expressing receptor, 37 °C, washed 3×
Experimental: Binding of TMOF-FITC to the AeaABC-TMOF receptor and its transport into the recombinant E. coli cells were observed using Leica DM6B microscope with Leica DFC 7000 T camera and 63× magnification using oil immersion lens. […] After incubation, the cells were washed 3× in PBS pH 7.2 (as in Section 2.6) and aliquots (10 μL) were spread on a glass slide then covered with a cover slip and a drop of oil was applied to the top of the cover slip, and the cells observed by fluorescence microscopy. Cells without a TMOF-receptor containing an empty plasmid were used as control.

E. coli SbmA− cells [3] = experiment: Fluorescence microscopy of E. coli cells with empty pTAC-MAT-2 plasmid incubated with TMOF-FITC; assay type: cell-based; conditions: overnight incubation, 10^8 cells with empty plasmid, 37 °C, washed 3×
Experimental: Binding of TMOF-FITC to the AeaABC-TMOF receptor and its transport into the recombinant E. coli cells were observed using Leica DM6B microscope with Leica DFC 7000 T camera and 63× magnification using oil immersion lens. Mid-log E. coli cells (10^8 cells) expressing AeaABC-TMOF-receptor were incubated with TMOF-FITC (see Section 2.6) in M9 medium (100 μL) overnight at 37 °C. After incubation, the cells were washed 3× in PBS pH 7.2 (as in Section 2.6) and aliquots (10 μL) were spread on a glass slide then covered with a cover slip and a drop of oil was applied to the top of the cover slip, and the cells observed by fluorescence microscopy. Cells without a TMOF-receptor containing an empty plasmid were used as control.

AeaABC-TMOF receptor [4] = experiment: Binding of TMOF-FITC to AeaABC-TMOF receptor expressed in E. coli SbmA− cells; parameters: species or system Aedes aegypti; conditions: for Kd: TMOF-FITC 0–0.4 μM, 8 × 10^8 E. coli SbmA− cells expressing receptor, M9 medium pH 7.2, 37 °C, fluorescence, corrected for nonspecific binding (13%), nonlinear regression, n = 5, ± SEM; for Bmax: as for KD, ± SEM; for affinity constant Kassoc: calculated from the binding kinetics
Experimental: Mid-log phase bacteria harboring TMOF-receptor were harvested, diluted and 0.5 μL (8 × 10^8 cells) were incubated in M9 medium (100 μL) pH 7.2 at 37 °C for 2 h in a shaker incubator in Eppendorf tubes with different concentrations of TMOF-FITC (0–0.4 μM) (specific activity = 25,396 fluorescence units/pmol) in the presence of TMOF (1 μmol) to reduce nonspecific binding of TMOF-FITC to the bacterial surface. After incubation, the cells were centrifuged at 14,000 rpm for 5 min at 4 °C, resuspended in PBS pH 7.2 (100 μL), vortexed, centrifuged, and the washing was repeated three times. After the last wash, the cells OD600nm and fluorescence were read in GloMax multidetector system using a blue filter (excitation at 490 nm and emission at 510–570 nm). The amount of TMOF-FITC that bound the TMOF-receptor was determined from a linear calibration curve after plotting different concentrations of TMOF-FITC against fluorescence units. […] After HPLC purification, the TFA ions were exchanged with phosphate ions. […] The results are expressed as pmol/OD600 so the binding to the receptor is per equal number of E. coli cells. The kinetics of TMOF-FITC binding to its receptor was followed at different concentrations of TMOF-FITC using 5 repetitions per concentration, the data was then fitted by nonlinear regression using GraphPad Prism and the KD, Bmax and the affinity constant Kassoc determined. The binding experiments were repeated 3 independent times.
Statistical analyses were determined using GraphPad Prism using two tailed Student’s t test and nonlinear regression. Results were considered significant when p < 0.05. […] Each experimental point is a mean of 3–5 determinations ± SEM.

E. coli SbmA− cells [5] = experiment: Nonspecific binding of TMOF-FITC to E. coli SbmA− cells with empty pTAC-MAT-2 plasmid
Experimental: (§1) Mid-log phase bacteria harboring TMOF-receptor were harvested, diluted and 0.5 μL (8 × 10^8 cells) were incubated in M9 medium (100 μL) pH 7.2 at 37 °C for 2 h in a shaker incubator in Eppendorf tubes with different concentrations of TMOF-FITC (0–0.4 μM) (specific activity = 25,396 fluorescence units/pmol) in the presence of TMOF (1 μmol) to reduce nonspecific binding of TMOF-FITC to the bacterial surface. After incubation, the cells were centrifuged at 14,000 rpm for 5 min at 4 °C, resuspended in PBS pH 7.2 (100 μL), vortexed, centrifuged, and the washing was repeated three times. After the last wash, the cells OD600nm and fluorescence were read in GloMax multidetector system using a blue filter (excitation at 490 nm and emission at 510–570 nm). The amount of TMOF-FITC that bound the TMOF-receptor was determined from a linear calibration curve after plotting different concentrations of TMOF-FITC against fluorescence units. […] The results are expressed as pmol/OD600 so the binding to the receptor is per equal number of E. coli cells. The kinetics of TMOF-FITC binding to its receptor was followed at different concentrations of TMOF-FITC using 5 repetitions per concentration, the data was then fitted by nonlinear regression using GraphPad Prism and the KD, Bmax and the affinity constant Kassoc determined. […]

E. coli SbmA+ cells = experiment: Binding of TMOF-FITC to E. coli SbmA+ cells with empty pTAC-MAT2 plasmid; conditions: 8 × 10^8 cells, 2 h, 37 °C, M9 medium, mean of three
Experimental: as §1

TMOF gut receptor = conditions: cited from earlier work
Excerpt: To characterize the TMOF gut receptor, complementary decapeptides were used on Ae. aegypti gut membranes showing that the binding to the gut membrane is pH and temperature dependent. […] The specific TMOF receptor binding sites on female mosquito gut increased after the blood meal and they were visualized by immunochemistry staining. […] Our earlier studies also characterized a low affinity receptor [25] whereas in this study the affinity chromatography and SDS PAGE procedure that we used aimed to purify a high affinity TMOF receptor. It is possible that a second low affi ...

In the case of `CC(C)[C@@H]1NC(=O)[C@H](C)OC(=O)[C@@H](C(C)C)NC(=O)[C@@H](C(C)C)OC(=O)[C@H](C(C)C)NC(=O)[C@H](C)OC(=O)[C@@H](C(C)C)NC(=O)[C@@H](C(C)C)OC(=O)[C@H](C(C)C)NC(=O)[C@H](C)OC(=O)[C@@H](C(C)C)NC(=O)[C@@H](C(C)C)OC1=O` [Valinomycin], the “effect on transport of AeaTMOF-FITC into E. coli cells (in words)” value (“effect on transport” below) (AeaABC-TMOF receptor [1]) is reported as “did not stop the transport”.

In the case of H-YDPAPPPPPPK(FITC)K-OH [TMOF-FITC], the “fluorescence of cells / import (in words)” value (AeaABC-TMOF receptor [2]) is reported as “imports it into the bacterial cells”, the “fluorescence of cells / import (in words)” value (AeaABC-TMOF receptor [2]; listed as AeaTMOF-FITC) is reported as “highly fluoresce” and the “fluorescence of cells (in words)” value (AeaABC-TMOF receptor [2]; short time incubation (2 h), cells expressing receptor) is reported as “did not fluoresce”. For the same molecule, the “fluorescence of cells (in words)” value (E. coli SbmA− cells [3]) was “did not fluoresce”, the “fluorescence of cells (in words)” value (E. coli SbmA− cells [3]; listed as AeaTMOF-FITC) was “barely fluoresce” and the “fold more TMOF-FITC bound by receptor-expressing cells than by E. coli SbmA+” value (AeaABC-TMOF receptor [4]; 2 h, 37 °C, M9 medium, versus E. coli SbmA+ with empty plasmid, p = 0.0034) was 3.7 fold. The “fold more TMOF-FITC bound by receptor-expressing cells than by E. coli SbmA−” value (AeaABC-TMOF receptor [4]; 2 h, 37 °C, M9 medium, versus E. coli SbmA− with empty plasmid, p = 0.0018) was 7.8 fold, the Kd (AeaABC-TMOF receptor [4]; 2 h) was 114 ± 18 nM and the Bmax (AeaABC-TMOF receptor [4]; per equal number of E. coli cells, n = 5) was 28.7 ± 1.8 pmol/OD600. The “affinity constant Kassoc” value (AeaABC-TMOF receptor [4]) was 8.8e+06 M⁻¹, the nonspecific binding (E. coli SbmA− cells [5]; E. coli SbmA− cells with empty pTAC-MAT-2 plasmid, not expressing the receptor (bacterial cell wall)) was 13% and the AeaTMOF-FITC bound (E. coli SbmA− cells [5]; E. coli SbmA− cells, 8 × 10^8 cells, 2 h, 37 °C, M9 medium, mean of three) was 4 pmol. It also gave an AeaTMOF-FITC bound (E. coli SbmA+ cells) of 8.4 pmol.

With `O=[As]([O-])([O-])O.[Na+].[Na+]` [NaArsenate, sodium arsenate] the “inhibition of transport of AeaTMOF-FITC into E. coli cells” value (AeaABC-TMOF receptor [1]) was 58% and the “effect on transport” value (AeaABC-TMOF receptor [1]) was “inhibited”.

With `[N-]=[N+]=[N-].[Na+]` [NaAzide, sodium azide] the “inhibition of transport of AeaTMOF-FITC into E. coli cells” value (AeaABC-TMOF receptor [1]) was 43% and the “effect on transport” value (AeaABC-TMOF receptor [1]) was “inhibited”.

For `O=[N+]([O-])c1ccc(O)c([N+](=O)[O-])c1` [DNP, 2,4-dinirophenol], the “effect on transport” value (AeaABC-TMOF receptor [1]) was “did not stop the transport”.

For YDPAPPPPPP [TMOF], the Bmax (TMOF gut receptor; gut membrane preparations) is given as 0.1 pmol/gut, the Kassoc (TMOF gut receptor; gut membrane preparations) is given as 2.2e+06 M⁻¹ and the Kd (TMOF gut receptor; low affinity binding site, gut membranes, complementary decapeptides, read-out: Kd2) is given as 4430 nM. For the same molecule, the Kd (AeaABC-TMOF receptor [4]; 2 h) was 114 ± 18 nM, the Bmax (AeaABC-TMOF receptor [4]) was 28.7 ± 1.8 pmol and the “affinity constant Kassoc” value (AeaABC-TMOF receptor [4]) was 8.8e+06 M⁻¹.
